From US20090209598A1, “Resorcine Derivatives and Their Use as Pesticides” (priority 2005, published 2009)

Experiments:
Test in all cases: whole plant or invertebrate
Format in all cases: in vivo
[1] = test system: diamond back moth (plutella xylostella); details: foliar, cabbage leaf disk dip, third instar larvae, after 72 h, read-out: mortality in comparison with untreated controls
Method: 6. Activity against diamond back moth (plutella xylostella)
The active compounds were formulated in 50:50 acetone:water and 0.1% (vol/vol) Alkamuls EL 620 surfactant. A 6 cm leaf disk of cabbage leaves was dipped in the test solution for 3 seconds and allowed to air dry in a Petri plate lined with moist filter paper. The leaf disk was inoculated with 10 third instar larvae and kept at […] and 50-60% humidity for 3 days. Mortality was assessed after 72 h of treatment.

[2] = test system: Tobacco Budworm (Heliothis virescens); details: 144 h, eggs sprayed with 10 μl test solution, 6 days
Method: 2. Activity Against Tobacco Budworm (Heliothis virescens)
The active compounds were formulated in 1:3 DMSO:water. 15 to 25 eggs were placed into microtiterplates filled with diet. The eggs were sprayed with 10 μl of the test solution, the plates were sealed with pierced foils and kept at 27-29° C. and 75-85% humidity under fluorescent light for 6 days. Mortality was assessed on the basis of the agility and of comparative feeding of the hatched larvae. Tests were replicated 2 times.

[3] = test system: Southern Armyworm (Spodoptera Eridania), 2Nd Instar Larvae; details: in Phaseolus lunatus, foliar, 96 h, leaf dip, at 4 days, read-out: mortality in comparison with untreated controls
Method: 3. Activity Against Southern Armyworm (Spodoptera Eridania), 2Nd Instar Larvae
The active compounds were formulated for testing the activity against insects and arachnids as a 10.000 ppm solution in a mixture of 35% acetone and water, which was diluted with water, if needed.
A Sieva lima bean leaf was dipped in the test solution and allowed to dry. The leaf was then placed in a plastic perforated zip enclosure bag and ten 2nd instar larvae were added. At 4 days, observations are made of mortality and reduced feeding.

[4] = test system: Boll Weevil (Anthonomus grandis); details: eggs sprayed with 20 μl test solution, 3 to 5 days
Method: 1. Activity Against Boll Weevil (Anthonomus grandis)
The active compounds were formulated in 1:3 DMSO:water. 10 to 15 eggs were placed into microtiterplates filled with 2% agar-agar in water and 300 ppm formaline. The eggs were sprayed with 20 μl of the test solution, the plates were sealed with pierced foils and kept at 24-26° C. and 75-85% humidity with a day/night cycle for 3 to 5 days. Mortality was assessed on the basis of the remaining unhatched eggs or larvae on the agar surface and/or quantity and depth of the digging channels caused by the hatched larvae. Tests were replicated 2 times.

SMILES: FC(F)(F)c1ccc(OCCCCCCOc2cc(Cl)cc(OCC=C(Cl)Cl)c2)nc1 [I.2, 2-{6-[3-chloro-5-(3,3-dichloro-allyloxy)-phenoxy]-hexyloxy}-5-trifluoromethylpyridine]
- mortality at 300 ppm [1]: ≥ 75%
- mortality at 2500 ppm [2]: > 75%
- mortality at 300 ppm [3]: ≥ 80%
- mortality at 2500 ppm [4]: > 75%
